In brackets after ≈: the same amount, converted by molar mass.
How the values were obtained:
Assay in all cases: MIC by agar dilution (NCCLS), 322 nosocomial Gram negative isolates, Athens 1998
Format in all cases: cell-based
Pseudomonas aeruginosa = conditions: n = 57 isolates
Escherichia coli = conditions: Escherichia coli; n = 57 isolates
Klebsiella pneumoniae = conditions: Klebsiella pneumoniae; n = 56 isolates
Proteus mirabilis = conditions: Proteus mirabilis; n = 57 isolates
Acinetobacter spp. = conditions: Acinetobacter; n = 38 strains

CC(C)(O/N=C(\C(=O)N[C@@H]1C(=O)N2C(C(=O)[O-])=C(C[n+]3ccccc3)CS[C@H]12)c1csc(N)n1)C(=O)O [Ceftazidime]
MIC50 (Pseudomonas aeruginosa): 2 µg/mL (≈ 3.66 µM) | MIC90 (Pseudomonas aeruginosa): > 64 µg/mL | MIC50 (Escherichia coli): 0.125 µg/mL (≈ 0.229 µM) | MIC90 (Escherichia coli): 0.25 µg/mL (≈ 0.457 µM) | MIC50 (Klebsiella pneumoniae): 0.25 µg/mL (≈ 0.457 µM) | MIC90 (Klebsiella pneumoniae): > 64 µg/mL | MIC50 (Proteus mirabilis): 0.125 µg/mL (≈ 0.229 µM) | MIC90 (Proteus mirabilis): 8 µg/mL (≈ 14.6 µM) | MIC50 (Acinetobacter spp.): > 64 µg/mL | MIC90 (Acinetobacter spp.): > 64 µg/mL

— patent EP1561465A2, “Methods of use of fluoroquinolone compounds against bacteria” (LG Life Sciences, Ltd., priority 1999, dated 2001)
